Values joined by “and” are separate entries in the source; they are usually repeats but may differ in a detail not shown here. Equal entries are not always repeated. Toxic doses and inconclusive results are not listed.
System: BDF1 mice, P388 leukemia ip, median survival T/C
Test: NCI In Vivo Anticancer Drug Screen. Data for tumor model P388 Leukemia (intraperitoneal) in B6D2F1 (BDF1) mice
Settings: endpoint: median survival time, higher = longer survival
How it was run: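 Survival ratio, drug arm over vehicle arm, in mice with a transplanted tumour.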

[1] = dose: 12.5 mg/kg/injection, schedule: Q01DX009 (ip), vehicle: saline
[2] = dose: 100.0 mg/kg/injection, schedule: Q04DX003 (ip), vehicle: saline with Tween-80
[3] = dose: 200.0 mg/kg/injection, schedule: Q04DX003 (ip), vehicle: saline with Tween-80
[4] = dose: 400.0 mg/kg/injection, schedule: Q04DX003 (ip), vehicle: saline with Tween-80
[5] = dose: 100.0 mg/kg/injection, schedule: Q01DX001 (ip), vehicle: saline with Tween-80
[6] = dose: 200.0 mg/kg/injection, schedule: Q01DX001 (ip), vehicle: saline with Tween-80
[7] = dose: 400.0 mg/kg/injection, schedule: Q01DX001 (ip), vehicle: saline with Tween-80
[8] = dose: 12.5 mg/kg/injection, schedule: Q01DX009 (ip), vehicle: Klucel (hydroxypropylcellulose) (HPC)
[9] = dose: 25.0 mg/kg/injection, schedule: Q01DX009 (ip), vehicle: Klucel (hydroxypropylcellulose) (HPC)

Question: `NCC1OC(OC2C(N)CC(N)C(O)C2OC2OC(CO)C(O)C2O)C(N)C(O)C1O` (centres undefined) was tested. Which T/C [1] did it give?
Answer: 104 % of control

Question: And the T/C (dose: 25.0 mg/kg/injection, schedule: Q01DX009 (ip), vehicle: saline)?
Answer: 111 % of control

Question: And the T/C (dose: 50.0 mg/kg/injection, schedule: Q01DX009 (ip), vehicle: saline)?
Answer: 111 % of control

Question: What about the T/C (dose: 100.0 mg/kg/injection, schedule: Q01DX009 (ip), vehicle: saline) of the same compound?
Answer: 110 % of control and 114 % of control and 120 % of control

Question: What about the T/C (dose: 150.0 mg/kg/injection, schedule: Q01DX009 (ip), vehicle: saline) of the same compound?
Answer: 105 % of control

Question: What about the T/C (dose: 200.0 mg/kg/injection, schedule: Q01DX009 (ip), vehicle: saline) of the same compound?
Answer: 119 % of control

Question: And the T/C (dose: 225.0 mg/kg/injection, schedule: Q01DX009 (ip), vehicle: saline)?
Answer: 99 % of control

Question: And the T/C (dose: 400.0 mg/kg/injection, schedule: Q01DX009 (ip), vehicle: saline)?
Answer: 99 % of control

Question: Which results are given for `C=CCCCCCCCCC(=O)Cl`?
Answer: T/C [2]: 108 % of control; T/C [3]: 104 % of control; T/C [4]: 100 % of control

Question: `Cc1c(Cl)cccc1N1C(=O)CC(Sc2ccccc2N)C1=O` (centres undefined) was tested. Which T/C (dose: 100.0 mg/kg/injection, schedule: Q01DX009 (ip), vehicle: saline with Tween-80) did it give?
Answer: 110 % of control

Question: What about the T/C [2] of the same compound?
Answer: 95 % of control

Question: And the T/C (dose: 200.0 mg/kg/injection, schedule: Q01DX009 (ip), vehicle: saline with Tween-80)?
Answer: 105 % of control

Question: And the T/C [3]?
Answer: 104 % of control

Question: And the T/C (dose: 400.0 mg/kg/injection, schedule: Q01DX009 (ip), vehicle: saline with Tween-80)?
Answer: 105 % of control

Question: What about the T/C [4] of the same compound?
Answer: 109 % of control

Question: For `O=C1OC(c2ccccc2)CC1NCc1ccccc1` (centres undefined), which T/C [5] is on record?
Answer: 100 % of control

Question: And the T/C [6]?
Answer: 100 % of control

Question: And the T/C [7]?
Answer: 100 % of control

Question: With `O=C1C=C(SCCO)C(=O)c2ccccc21` as the compound, how does the T/C (dose: 0.37 mg/kg/injection, schedule: Q04DX003 (ip), vehicle: saline) read?
Answer: 100 % of control

Question: What about the T/C (dose: 0.75 mg/kg/injection, schedule: Q04DX003 (ip), vehicle: saline) of the same compound?
Answer: 104 % of control

Question: What about the T/C (dose: 1.5 mg/kg/injection, schedule: Q04DX003 (ip), vehicle: saline) of the same compound?
Answer: 109 % of control

Question: How did the T/C (dose: 8.0 mg/kg/injection, schedule: Q04DX003 (ip), vehicle: saline with Tween-80) turn out when `CCCCNP(=O)(N1CC1)N1CC1` was run?
Answer: 116 % of control

Question: And the T/C (dose: 8.25 mg/kg/injection, schedule: Q04DX003 (ip), vehicle: saline with Tween-80)?
Answer: 154 % of control

Question: And the T/C (dose: 12.0 mg/kg/injection, schedule: Q04DX003 (ip), vehicle: saline with Tween-80)?
Answer: 100 % of control

Question: What about the T/C (dose: 12.5 mg/kg/injection, schedule: Q04DX003 (ip), vehicle: saline with Tween-80) of the same compound?
Answer: 190 % of control

Question: What about the T/C (dose: 18.75 mg/kg/injection, schedule: Q04DX003 (ip), vehicle: saline with Tween-80) of the same compound?
Answer: 218 % of control

Question: For `Cn1c(Cl)nc2c(Cl)nc(Cl)nc21`, which T/C (dose: 1.0 mg/kg/injection, schedule: Q01DX009 (ip), vehicle: Klucel (hydroxypropylcellulose) (HPC)) is on record?
Answer: 105 % of control

Question: And the T/C (dose: 2.0 mg/kg/injection, schedule: Q01DX009 (ip), vehicle: Klucel (hydroxypropylcellulose) (HPC))?
Answer: 100 % of control

Question: And the T/C (dose: 4.0 mg/kg/injection, schedule: Q01DX009 (ip), vehicle: Klucel (hydroxypropylcellulose) (HPC))?
Answer: 110 % of control

Question: And the T/C (dose: 8.0 mg/kg/injection, schedule: Q01DX009 (ip), vehicle: Klucel (hydroxypropylcellulose) (HPC))?
Answer: 105 % of control

Question: What about the T/C (dose: 16.0 mg/kg/injection, schedule: Q01DX009 (ip), vehicle: Klucel (hydroxypropylcellulose) (HPC)) of the same compound?
Answer: 100 % of control

Question: `CC(=O)Nc1ccc(NNCc2ccccc2)c(N)c1` was tested. Which T/C [5] did it give?
Answer: 97 % of control

Question: And the T/C [6]?
Answer: 96 % of control

Question: And the T/C [7]?
Answer: 91 % of control

Question: Which T/C (dose: 100.0 mg/kg/injection, schedule: Q01DX009 (ip), vehicle: Klucel (hydroxypropylcellulose) (HPC)) does the source give for `NC(=O)NC1C(c2ccccc2)=NOC1C(N)=O` (centres undefined) here?
Answer: 105 % of control

Question: What about the T/C (dose: 200.0 mg/kg/injection, schedule: Q01DX009 (ip), vehicle: Klucel (hydroxypropylcellulose) (HPC)) of the same compound?
Answer: 100 % of control

Question: With `OC1CCCC2CCC[N-]C12.OC1CCCC2CCC[N-]C12.[O]=[V][OH]` (centres undefined) as the compound, how does the T/C (dose: 3.12 mg/kg/injection, schedule: Q01DX009 (ip), vehicle: Klucel (hydroxypropylcellulose) (HPC)) read?
Answer: 100 % of control

Question: And the T/C (dose: 6.25 mg/kg/injection, schedule: Q01DX009 (ip), vehicle: Klucel (hydroxypropylcellulose) (HPC))?
Answer: 95 % of control

Question: What about the T/C (dose: 6.25 mg/kg/injection, schedule: Q01DX009 (ip), vehicle: saline) of the same compound?
Answer: 110 % of control

Question: What about the T/C [8] of the same compound?
Answer: 100 % of control

Question: What about the T/C [1] of the same compound?
Answer: 150 % of control

Question: What about the T/C [9] of the same compound?
Answer: 100 % of control

Question: For `Cc1ccc([N+](=O)[O-])cc1N=C=O`, which T/C [8] is on record?
Answer: 96 % of control

Question: What about the T/C [9] of the same compound?
Answer: 100 % of control

Question: And the T/C (dose: 50.0 mg/kg/injection, schedule: Q01DX009 (ip), vehicle: Klucel (hydroxypropylcellulose) (HPC))?
Answer: 96 % of control

Question: And the T/C (dose: 100.0 mg/kg/injection, schedule: Q04DX003 (ip), vehicle: Klucel (hydroxypropylcellulose) (HPC))?
Answer: 91 % of control

Question: And the T/C (dose: 400.0 mg/kg/injection, schedule: Q04DX003 (ip), vehicle: Klucel (hydroxypropylcellulose) (HPC))?
Answer: 91 % of control
